Reference: patent US20080287371A1, “MACROCYCLIC ANTAGONISTS OF THE MOTILIN RECEPTOR FOR MODULATION OF THE MIGRATING MOTOR COMPLEX” (Tranzyme Pharma Inc., priority 2007, published 2008)
“Also recorded” adds a separate entry of the source.

Columns and labels:
MMC = conditions: dog; cited from earlier work
[1] = tested on: migrating motor complex (MMC); assay: Strain gauge animal model (Method F): migrating motor complex in fasted dogs; format: in vivo, beagle dogs; conditions: for effect on the migrating motor complex (MMC): fasted beagle dogs
Procedure: (§1) Gastrointestinal motility was measured for 24 hours by telemetry in freely moving beagle dogs instrumented with strain gauges on both the antrum and duodenum. The method utilized for the strain gauges was based upon that in the literature. (Edelbroek, M.; Schuurkes, J.; De Ridder, W.; Horowitz, M.; Dent, J.; Akkermans, L. Dig. Dis. Sci. 1995, 40, 901-911; Briejer, M. R.; Prins, N. H.; Schuurkes, J. A. Neurogastroenterol. Motil. 2001 13, 465-472.) Analogous methods that can be used are known. (Dog: Itohb, Z.; Honda, R.; Takeuchi, S.; Aizawa, I.; Takayanagi, R. Gastroenterol. Jpn. 1977, 12, 275-283; Iwai, T.; Nakamura, H.; Takanashi, H.; et al. Can. J. Physiol. Pharmacol. 1998, 76, 1103-1109; Dog and guinea pig, Ohno, T.; Kamiyama, Y.; Aihara, R.; Nakabayashi, T.; Mochiki, E.; Asao, T.; Kuwano, H. Neurogastroenterol. Motil. 2006, 18, 129-135; Rat: Bunce, K. T.; Elswood, C. J.; Ball, M. T. Br. J. Pharmacol. 1991, 102, 811-816; Guinea pig: Cooke, H. J.; Wang, Y. Z.; Frieling, T.; Wood, J. D. Am. J. Physiol. 1991, 261, G833-G840.)
Calibrated strain gauges (Schuurkes, J. A. J.; Van der Schee, E. J.; Grashuis, J. L.; Charbon, G. R. A. in Gastrointestinal Motility in Health and Disease; Duthie, H. L., Ed., MTP Press, Lancaster (UK), 1978, pp 647-654) and bipolar extracellular electrodes were implanted under aseptic conditions in each of four female beagle dogs. (Bass, P.; Wiley, J. N. J. Appl. Physiol. 1972, 32, 567-570.) The strain gauges were sutured onto the seromuscular layer parallel to the axis of the circular muscle, on the distal antrum (3 cm orad to the distal pyloric loop), proximal duodenum (3 cm and 6 cm aborad to the pylorus) and distal pyloric muscle loop. The bipolar extracellular electrodes were implanted onto the scrosal side of the distal antrum and proximal duodenum 2 cm orad and aborad to the pylorus. The lead wires were brought out via a subcutaneous tunnel in the left costal flank through a stab wound between the scapulae. Postsurgically, the lead wires were soldered to the connectors and protected appropriately.
In the same surgical incision, a gastrostomy and duodenostomy were performed. The gastrostomy was situated anteriorly in the midventral region between the lesser and greater curvature 2 cm orad to the nerve of Latarget and kept patent with a stainless steel cannula (internal diameter 1.4 cm, length 7.0 cm). The duodenostomy was situated 10 cm aborad to the pylorus and was kept patent with a cannula of smaller diameter (internal diameter 0.9 cm, length 7.5 cm). A thin tubing (outer diameter 2.2 mm) was pulled across the pylorus and attached to the caps of the gastric and duodenal cannulae in order to facilitate placement of the manometric assembly postsurgically. The greater omentum was wrapped around the cannulae to secure positioning and then the cannulae were tightly capped between experiments to permit normal feeding. Dogs were allowed to recover for at least two weeks prior to conduct of any experiments.
Intraluminal pressures were recorded with a manometric assembly incorporating a sleeve sensor with a 4.8 cm length (outer diameter 5.4 mm) to monitor pyloric pressure waves. (Dent, J. Gastroenterology 1976, 71, 263-267.) Four side holes were spaced at 1.6-cm intervals along the sleeve length. Side holes at each end of the sleeve were used to measure antral and duodenal pressures and transmucosal potential difference (TMPD) simultaneously. (Arndorfer, R. C.; Stef, J. J.; Doss, W. J.; Linehan, J. H.; Hogan, W. J. Gastroenterol. 1977, 73, 23-27.) Two additional side holes were placed 3.3 and 1.6 cm orad to the proximal end of the sleeve (antral sites) and another two side holes were placed 1.6 and 3.3 cm aborad to the distal end of the sleeve (duodenal sites). All channels were perfused with degassed distilled water at 0.3 mL/min, except for the side holes used to measure the antroduodenal TMPD, which were perfused with saline. […]

[2] = tested on: post-prandial gastrointestinal activity; assay: Strain gauge animal model (Method F): post-prandial gastrointestinal activity in fed dogs; format: in vivo, beagle dogs
Procedure: as §1, with “G833-G840.) […]” for “G833-G840.)”
Intraluminal pressures were recorded with a manometric assembly incorporating a sleeve sensor with a 4.8 cm length (outer diameter 5.4 mm) to monitor pyloric pressure waves. […]

[3] = tested on: fundic tone / gastric accommodation; assay: Animal model of fundic accommodation (Method E, barostat, milk meal); format: in vivo, Beagle dogs
Procedure: Fundic accommodation in response to a 200 mL milk meal was measured using a barostat. This can be considered as a model for functional dyspepsia, at least some occurrences of which is known to be a result of poor gastric accommodation (Tack, J.; Piessevaux, H.; Coulie, B.; Caenepeel, P.; Janssens, J. Gastroenterology 1998, 115, 1346-1352; DiStefano, M.; Micelli, E.; Mazzocchi, S.; Tana, P.; Corazza, G. R. Eur. Rev. Med. Pharmacol. Sci. 2005, 9, 23-28; Kindt, S.; Tack, J. Gut 2006, 55, 1685-1691; van den Elzen, B. D.; Boeckxstaens, G. E. Aliment. Pharmacol. Ther. 2006, 23, 1499-1510.). The described method is based upon a literature method. (Meulemans A. Schuurkes J. Neurogastroenterol. Motil. 1995, 7, 151-155.) The use of gallbladder volume has been linked to the motilin effect in functional dyspepsia and also can be used as a biomarker to test the effect of an antagonist on FD in humans. (Kamerling, I. M. C.; Van Haarst, A. D.; De Kam, M. L.; Cohen, A. F.; Masclee, A. A. M.; Burggraaf, J. Aliment, Pharmacol. Ther. 2004, 19, 797-804.) Other methods can also be utilized for this assessment and have been reviewed. (DeSchepper, H. U.; Cremonini, F.,; Chitkara, D.; Camilleri, M. Neurogastroenterol. Motil. 2004, 16, 275-285.) The dog is often used as an appropriate model for GI diseases due to the similarity in the alimentary tracts between dogs and humans. Additionally, the dog motilin receptor has been identified and characterized with the expression profile determined. It shares 71% homology to the human receptor and 72% to the rabbit receptor. (Ohshiro, H.; Nonaka, M.; Ichikawa, K. Regul. Pept. 2008, 146, 80-87.)
Beagle dogs were trained to stand quietly in Pavlov frames. Each was implanted using the following procedure with a gastric and duodenal cannula under general anesthesia with standard aseptic precautions. After a medium laparotomy, an incision was made through the gastric wall in the longitudinal direction between the greater and the lesser curvature, 2 cm above the nerves of Latarjet. The gastric cannula (diameter 18 mm) was secured to the gastric wall by means of an appropriate suture and then brought out via a stab wound at the left quadrant of the hypochondrium. The duodenal cannula (diameter 4 mm) was implanted at about 12 cm distal to the pylorum. An incision of approximately 1 cm was made through the duodenal wall 3 cm distally from the site of implantation. The cannula was brought into the duodenum though this incision. The top of the cannula was brought out of the duodenal wall at the place of implantation and secured to the wall via suture. Afterwards, the duodenum was closed and the duodenal cannula was brought out via a stab wound at the right quadrant of the hypochondrium. Dogs were allowed a recovery period of 2 weeks during which they were treated with antibiotics.
Variations in gastric tone were measured by recording changes in the volume of air within an intragastric bag maintained at constant pressure (6 mm Hg) by a barostat. The barostat consists of an air injection system which is connected by a double-lumen polyvinyl tube to an ultrathin flaccid polyethylene bag with maximum volume of approximately 700 mL. Gastric tonic contractions cause the barostat to withdraw air to maintain the pressure, while relaxation triggers air injection to maintain pressure. In that manner, intrabag volume is an inverse measure of proximal gastric tone. Differences in gastric tone were recorded using a computer. […]

| SMILES | effect on the MMC (MMC) | effect on the migrating motor complex (MMC) ([1]; 0.30 mg/kg, i.v.) | contraction amplitude (CA), % of baseline CA ([1]; 1.0 mg/kg i.v., after 4 h) [%] | contraction amplitude (CA), % of baseline CA ([1]; 1.0 mg/kg i.v., over the first hour) [%] | time to first MMC ([1]; 1.0 mg/kg i.v., controls 99±15 min, P<0.01, n=4, mean±SEM) [min] | effect on the migrating motor complex (MMC) ([1]; 1 mg/kg, i.v., N=6) | phase III activity of the MMC ([1]; 0.10, 0.30, 1.0 mg/kg, i.v., after overnight fast) | time until CA returned to baseline levels ([1]; 0.10 and 0.30 mg/kg doses, n=2) [h] | post-prandial CA, % of pre-drug baseline ([2]; 0.30 mg/kg i.v., 2 h after standard 75 g meal, during first hour, n=2, vehicle 106±10%) [%] | post-prandial activity ([2]; 0.30 mg/kg, i.v., fed dogs) | gastric accommodation in response to the meal ([3]; 0.30 mg/kg i.v. bolus, continuous motilin infusion) | effect on motilin-induced fundic contraction ([3]; 0.30 mg/kg i.v., exogenous motilin 0.010 mg/kg/h i.v.) | AUC of fundic relaxation (0-to-5 min.) ([3]; 0.30 mg/kg i.v., motilin infusion 0.010 mg/kg/h i.v., milk meal, vehicle 18.7±3.3, n=4, p<0.05) [mL/h] | natural relaxation of the stomach in response to a meal (baseline, no motilin) ([3]; 0.1, 0.3 and 1.0 mg/kg, i.v., preliminary experiment) | motilin-induced increase in fundic tone, dose dependence ([3]; FIG. 3, cross-over design, N=6 dogs) |
| --- | --- | --- | --- | --- | --- | --- | --- | --- | --- | --- | --- | --- | --- | --- | --- |
| Cc1[nH]cnc1CN1CCc2c(c3ccccc3n2C)C1=O [Alosetron] | block the MMC |  |  |  |  |  |  |  |  |  |  |  |  |  |  |
| CC(C)[C@H]1NC(=O)[C@@H](Cc2cccc(C(F)(F)F)c2)NCCOc2ccccc2CCCNC(=O)[C@H](CN(C)C)NC1=O [Compound 502] |  | lesser delay of MMCs | 52±21 | 5±2 | 225 ± 31 | delay the migrating motor complex (MMC) | suppressed the regular occurrence of phase III activity of the MMC in a dose-dependent manner | 3 | 58±4 | briefly attenuate post-prandial activity | improved gastric accommodation | antagonized the effects of exogenous motilin; also recorded: antagonized the fundic contraction induced by infusion of exogenous motilin | 27.3 ± 3.5 | did not disturb this baseline phenomenon | prevented this increase in a dose-dependent manner |
